Legend:
Type in all cases: biochemical
μ-opioid receptor [1] = target: T1, μ-opioid receptor (Homo sapiens, UniProt P35372); experiment: μ-opioid receptor [35S]GTPγS functional assay, U-2 OS cells; design: host or cells: U-2 OS cells; settings: for Emax: U2-OS cells, relative to DAMGO
Method: (§1) [^35S]GTPγS functional assays were conducted using freshly thawed μ-receptor membranes prepared in-house from a cell line expressing recombinant opioid receptor in a HEK-293, CHO or U-2 OS cell background, or purchased from a commercial source (Perkin Elmer, Shelton, Conn.; or DiscovRx, Fremont, Calif.). Assay reactions were prepared by sequentially adding the following reagents to binding buffer (100 mM NaCl, 10 mM MgCl2, 20 mM HEPES, pH 7.4) on ice (final concentrations indicated): membrane protein (0.026 mg/mL), saponin ([…]), GDP ([…]) and [^35S]GTPγS (0.20 nM; Perkin Elmer, Shelton, Conn.). The prepared membrane solution (190 l/well) was transferred to 96-shallow well polypropylene plates containing 10 μl of 20× concentrated stock solutions of the agonist [D-Ala^2, N-methyl-Phe^4 Gly-ol^5]-enkephalin (DAMGO) prepared in dimethyl sulfoxide (DMSO). Plates were incubated for 30 min at about 25° C. with shaking. Reactions were terminated by rapid filtration onto 96-well Unifilter GF/B filter plates (Perkin Elmer, Shelton, Conn.) using a 96-well tissue harvester (Perkin Elmer, Shelton, Conn.) followed by three filtration washes with 200 μl of ice-cold wash buffer (10 mM NaH2PO4, 10 mM Na2HPO4, pH 7.4). Filter plates were subsequently dried at 50° C. for 2-3 hr. BetaScint scintillation cocktail (Perkin Elmer, Shelton, Conn.) was added (50 μl/well) and plates were counted using a Packard Top-Count for 1 min/well. Data were analyzed using the sigmoidal dose-response curve fitting functions in GraphPad PRISM v. 3.0, or an in-house function for non-linear, sigmoidal dose-response curve-fitting.
(§2) μ GTP EC50 is the concentration of a compound providing 50% of the maximal response for the compound at a μ-opioid receptor.
(§3) μ GTP Emax (%) is the maximal effect elicited by a compound relative to the effect elicited by DAMGO, a standard agonist. Generally, the μ GTP Emax (%) value measures the efficacy of a compound to treat or prevent pain or other Conditions.
(§4) In TABLE 2A, activity response of certain Compounds of the Invention at the μ- and κ-opioid receptors using U-2 OS cells was determined as described above for functional assays.

human κ opioid receptor = human κ opioid receptor (Homo sapiens, UniProt P41145); experiment: κ-opioid receptor [35S]GTPγS functional assay, U-2 OS cells; design: expressed in transfected cells; host or cells: U-2 OS cells (in-house membranes); settings: for Emax: U2-OS cells, relative to U69,593
human κ opioid receptor, sequence (P41145 whole entry): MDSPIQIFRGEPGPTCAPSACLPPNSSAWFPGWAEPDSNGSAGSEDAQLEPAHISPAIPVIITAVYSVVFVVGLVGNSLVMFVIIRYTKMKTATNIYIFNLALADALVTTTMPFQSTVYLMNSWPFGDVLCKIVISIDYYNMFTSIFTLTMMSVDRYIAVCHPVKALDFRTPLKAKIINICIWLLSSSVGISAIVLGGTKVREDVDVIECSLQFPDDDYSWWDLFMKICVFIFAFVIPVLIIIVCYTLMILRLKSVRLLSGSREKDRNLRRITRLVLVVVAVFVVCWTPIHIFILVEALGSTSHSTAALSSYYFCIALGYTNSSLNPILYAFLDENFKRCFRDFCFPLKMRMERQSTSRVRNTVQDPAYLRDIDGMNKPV
Method: Membranes from recombinant HEK-293 cells, CHO or U-2 OS cells expressing the recombinant human K opioid receptor (K) were prepared by lysing cells in ice cold hypotonic buffer (2.5 mM MgCl2, 50 mM HEPES, pH 7.4) (10 mL/10 cm dish) followed by homogenization with a tissue grinder/Teflon pestle. Functional [^35S]GTPγS binding assays were conducted as follows. K opioid receptor membrane solution was prepared by sequentially adding final concentrations of 0.026 μg/μl κ membrane protein (in-house), 10 μg/mL saponin, 3 μM GDP and 0.20 nM [^35S]GTPγS to binding buffer (100 mM NaCl, 10 mM MgCl2, 20 mM HEPES, pH 7.4) on ice. The prepared membrane solution (190 μl/well) was transferred to 96-shallow well polypropylene plates containing 10 μl of 20× concentrated stock solutions of agonist prepared in DMSO. Plates were incubated for 30 min at a temperature of about 25° C. with shaking. Reactions were terminated by rapid filtration onto 96-well Unifilter GF/B filter plates (Perkin Elmer, Shelton, Conn.) using a 96-well tissue harvester (Packard) and followed by three filtration washes with 200 μl ice-cold binding buffer (10 mM NaH2PO4, 10 mM Na2HPO4, pH 7.4). Filter plates were subsequently dried at 50° C. for 2-3 hours. Fifty μl/well scintillation cocktail (Perkin Elmer, Shelton, Conn.) was added and plates were counted in a Packard Top-Count for 1 min/well.
κ GTP EC50 is the concentration of a compound providing 50% of the maximal response for the compound at a κ receptor.
κ GTP Emax (%) is the maximal effect elicited by a compound relative to the effect elicited by U69,593.
as §4

μ-opioid receptor [2] = target: T1, μ-opioid receptor; experiment: μ-opioid receptor [35S]GTPγS functional assay, HEK-293 or CHO cells; settings: for Emax: HEK-293 or CHO cells, relative to DAMGO
Method: as §1, §2, §3
In TABLE 2, activity response of certain Compounds of the Invention at the μ- and κ-opioid receptors using HEK-293 or CHO cells was determined as described above for functional assays.

T1 sequence (P35372 whole entry, species assumed): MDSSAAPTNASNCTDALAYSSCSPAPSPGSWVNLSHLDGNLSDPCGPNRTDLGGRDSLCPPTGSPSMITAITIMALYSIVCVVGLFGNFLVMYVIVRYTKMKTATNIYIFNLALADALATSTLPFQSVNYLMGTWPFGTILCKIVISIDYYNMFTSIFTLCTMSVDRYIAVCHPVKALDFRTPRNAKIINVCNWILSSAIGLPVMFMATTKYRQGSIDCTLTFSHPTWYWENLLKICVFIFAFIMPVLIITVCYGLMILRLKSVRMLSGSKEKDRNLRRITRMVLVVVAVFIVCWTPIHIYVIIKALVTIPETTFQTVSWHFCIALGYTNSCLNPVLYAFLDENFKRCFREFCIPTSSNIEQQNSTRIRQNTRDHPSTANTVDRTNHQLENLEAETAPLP

Row | Compound | EC50 (μ-opioid receptor [1]) | Emax (μ-opioid receptor [1]) | EC50 (human κ opioid receptor) | Emax (human κ opioid receptor) | EC50 (μ-opioid receptor [2]) | Emax (μ-opioid receptor [2])
1 | CC[C@H](C)C(=O)N[C@H]1C[C@@]2(O)[C@H]3Cc4ccc(O)cc4[C@@]2(CCN3CC2CC2)C[C@H]1O [Compound 59, (S)—N-((4bR,6R,7S,8aS,9R)-11-(cyclopropylmethyl)-3,6,8a-trihydroxy-6,7,8,8a,9,10-hexahydro-5H-9,4b-(epiminoethano)phenanthren-7-yl)-2-methylbutanamide] | 45 ± 8.96 nM | 22.3 ± 1.45% | 35.6 ± 4.27 nM | 98.3 ± 3.18% |  | 
2 | CC(C)CC(=O)N[C@H]1C[C@@]2(O)[C@H]3Cc4ccc(O)cc4[C@@]2(CCN3CC2CC2)C[C@H]1O [Compound 60, N-((4bR,6R,7S,8aS,9R)-11-(cyclopropylmethyl)-3,6,8a-trihydroxy-6,7,8,8a,9,10-hexahydro-5H-9,4b-(epiminoethano)phenanthren-7-yl)-3-methylbutanamide] | 54.7 ± 8.1 nM | 25.3 ± 0.33% | 31.4 ± 3.7 nM | 106 ± 6.06% |  | 
3 | CC(C)CCC(=O)N[C@H]1C[C@@]2(O)[C@H]3Cc4ccc(O)cc4[C@@]2(CCN3CC2CC2)C[C@H]1O [Compound 61, N-((4bR,6R,7S,8aS,9R)-11-(cyclopropylmethyl)-3,6,8a-trihydroxy-6,7,8,8a,9,10-hexahydro-5H-9,4b-(epiminoethano)phenanthren-7-yl)-4-methylpentanamide] | 61.6 ± 5.41 nM | 26.7 ± 0.88% | 15.4 ± 2.43 nM | 97.7 ± 2.19% |  | 
4 | O=C(N[C@H]1C[C@@]2(O)[C@H]3Cc4ccc(O)cc4[C@@]2(CCN3CC2CC2)C[C@H]1O)C1CC1 [Compound 64, N-((4bR,6R,7S,8aS,9R)-11-(cyclopropylmethyl)-3,6,8a-trihydroxy-6,7,8,8a,9,10-hexahydro-5H-9,4b-(epiminoethano)phenanthren-7-yl)cyclopropanecarboxamide] | 112 ± 19.3 nM | 7.33 ± 0.33% | 48.3 ± 3.1 nM | 93.7 ± 2.33% |  | 
5 | O=C(N[C@H]1C[C@@]2(O)[C@H]3Cc4ccc(O)cc4[C@@]2(CCN3CC2CC2)CC1O)C1CCCCC1 (stereo partly drawn) [Compound 65, N-((4bR,7S,8aS,9R)-11-(cyclopropylmethyl)-3,6,8a-trihydroxy-6,7,8,8a,9,10-hexahydro-5H-9,4b-(epiminoethano)phenanthren-7-yl)cyclohexanecarboxamide] | 68.4 ± 13 nM | 26.7 ± 0.67% | 15.9 ± 2.09 nM | 106 ± 1.89% |  | 
6 | O=C(N[C@H]1C[C@@]2(O)[C@H]3Cc4ccc(O)cc4[C@@]2(CCN3CC2CC2)C[C@H]1O)c1ccccc1 [Compound 66, N-((4bR,6R,7S,8aS,9R)-11-(cyclopropylmethyl)-3,6,8a-trihydroxy-6,7,8,8a,9,10-hexahydro-5H-9,4b-(epiminoethano)phenanthren-7-yl)benzamide] | 114 ± 14.5 nM | 15 ± 0.58% | 39.2 ± 4.27 nM | 71.7 ± 1.2% |  | 
7 | CC(C)C[C@H]1C[C@@]2(O)[C@H]3Cc4ccc(O)cc4[C@@]2(CCN3CC2CC2)C[C@H]1O [Compound 67, (4bR,6R,7S,8aS,9R)-11-(cyclopropylmethyl)-7-isobutyl-5,6,7,8,9,10-hexahydro-8aH-9,4b-(epiminoethano)phenanthrene-3,6,8a-triol] | > 20000 nM | 2% | 55.5 ± 8.5 nM | 89.3 ± 1.67% |  | 
8 | Oc1ccc2c(c1)[C@]13CCN(CC4CC4)[C@H](C2)[C@]1(O)C[C@H](Cc1ccccc1)[C@H](O)C3 [Compound 103, (4bR,6R,7S,8aS,9R)-7-benzyl-11-(cyclopropylmethyl)-5,6,7,8,9,10-hexahydro-8aH-9,4b-(epiminoethano)phenanthrene-3,6,8a-triol] |  |  |  |  | > 20 µM | 1%
9 | CC(C)C(=O)N[C@H]1C[C@@]2(O)[C@H]3Cc4ccc(O)cc4[C@@]2(CCN3C)C[C@H]1O [Compound 104, N-((4bR,6R,7S,8aS,9R)-3,6,8a-trihydroxy-11-methyl-6,7,8,8a,9,10-hexahydro-5H-9,4b-(epiminoethano)phenanthren-7-yl)isobutyramide] |  |  |  |  | 15.5 ± 1.32 µM | 23 ± 1.53%

From patent US20200148646A1, “6-S[…] 7-S[…] ANALOGS AND THE USE THEREOF” (Purdue Pharma, L.P., priority 2013, published 2020)
